What was measured:
[1] = test system: HDAC (nuclear fraction of Hela cells); test: Assay of enzyme inhibition of HDAC (BIOMOL Kit); assay type: biochemical; conditions: substrate 200 μM, 15 min at RT
Protocol: 2.2 Assay of Enzyme Inhibition of HDAC
The in-vitro activity of HDAC inhibitors was assayed using a BIOMOL Kit, according to the instructions from the manufacturer (Biomolecular Research Laborator). 15 μl of 30× diluted nuclear fraction of Hela cells, was diluted to 50 μl with the assay buffer containing the HDAC inhibitor and the substrate (lysine with acetylated amino group on the side chain) at a concentration of 200 μM. The samples were incubated for 15 min at RT and then exposed to a developer (10 min at RT). In this last step a fluorophore was produced, whose fluorescence was measured using an excitation wavelength of 355 nm and an emission at 460 nm. The IC50 was calculated using GraphPad Software.

K562 cells = test: Cell growth, CellTiter-Glo Luminescent Cell Viability Assay, K562; assay type: cell-based; conditions: Homo sapiens, 72 h incubation, read-out: IC50 antiproliferative assay K562
From the text: (§1) CellTiter-Glo® Luminescent Cell Viability Assay (Promega) is a homogeneous method of determining the number of viable cells in culture based on quantitation of the present ATP, which indicates the presence of metabolically active cells. The homogeneous assay procedure involves addition of a single reagent (CellTiter-Glo® Reagent) directly to the cells, which leads to cell lysis and generation of a luminescent signal proportional to the amount of the ATP and the number of cells present in culture. The assay relies on the properties of a proprietary thermostable luciferase (Ultra-Glo® recombinant luciferase), which generates a luminescent signal.
(§2) K562, A549 and HCT-116 cells, in exponential growth, were incubated for 72 h with different concentrations of the inhibitors. After 72 h, a volume of CellTiter-Glo® Reagent equal to the volume of cell culture medium was added. The content was mixed for 2 min to induce cell lysis. The luminescence was recorded after further 10 min at RT in order to obtain a stabilized luminescent signal.
(§3) The IC50 was calculated using GraphPad Software.
(§4) IC50 results were allocated to one of 3 ranges as follows: Range A: IC50≦1.0 μM; Range B: from 1.0 to 3.0 μM; Range C: IC50≧3.0 μM.

A549 cells = test: Cell growth, CellTiter-Glo Luminescent Cell Viability Assay, A549; assay type: cell-based; conditions: Homo sapiens, 72 h incubation, read-out: IC50 antiproliferative assay A549
From the text: as §1, §2, §3, §4

HCT-116 cells = test: Cell growth, CellTiter-Glo Luminescent Cell Viability Assay, HCT-116; assay type: cell-based; conditions: Homo sapiens, HCT116 cells, 72 h incubation, read-out: IC50 antiproliferative assay HCT116
From the text: as §1, §2, §3, §4

| IC50 [1] [nM] | IC50 (K562 cells) [nM] | IC50 (A549 cells) [nM] | IC50 (HCT-116 cells) [nM] | SMILES |
| --- | --- | --- | --- | --- |
| 100 to 1000 | ≤ 1000 | 1000 to 3000 | ≤ 1000 | Cc1ccc(CN2CCC3(CC2)CC(=O)c2cc(/C=C/C(=O)NO)ccc2O3)cc1 [Example 30, (E)-3-{1′-(4-Methyl-benzyl)-4-oxo-spiro[chromane-2,4′-piperidine]-6-yl}-N-hydroxy-acrylamide] |
| 100 to 1000 | ≤ 1000 | 1000 to 3000 | ≤ 1000 | O=C(/C=C/c1ccc2c(c1)C(=O)CC1(CCN(Cc3ccc(F)cc3)CC1)O2)NO [Example 36, (E)-3-{1′-(4-Fluoro-benzyl)-4-oxo-spiro[chromane-2,4′-piperidine]-6-yl}-N-hydroxy-acrylamide] |
| < 100 | ≤ 1000 | ≤ 1000 | ≤ 1000 | O=C(/C=C/c1ccc2c(c1)C(=O)CC1(CCN(Cc3c[nH]c4ccc(F)cc34)CC1)O2)NO [Example 54, (E)-3-{1′-(5-Fluoro-1H-indol-3-ylmethyl)-4-oxo-spiro[chromane-2,4′-piperidine]-6-yl}-N-hydroxy-acrylamide] |
| 100 to 1000 | 1000 to 3000 | ≥ 3000 | 1000 to 3000 | O=C(/C=C/c1ccc2c(c1)C(=O)CC1(CCN(C(=O)Nc3ccccc3)CC1)O2)NO [Example 48, (E)-3-{1′-Phenylcarbamoyl-4-oxo-spiro[chromane-2,4′-piperidine]-6-yl}-N-hydroxy-acrylamide] |
| > 1000 | ≥ 3000 | ≥ 3000 | ≥ 3000 | O=C(/C=C/c1ccc2c(c1)OC1(CCNCC1)CC2=O)NO [Example 8, (E)-3-{4-oxo-spiro[chromane-2,4′-piperidine]-7-yl}-N-hydroxy-acrylamide] |
| 100 to 1000 | ≤ 1000 | 1000 to 3000 | ≤ 1000 | CN1CCC2(CC1)CC(=O)c1cc(/C=C/C(=O)NO)ccc1O2 [Example 5, (E)-3-{1′-Methyl-4-oxo-spiro[chromane-2,4′-piperidine]-6-yl}-N-hydroxy-acrylamide] |
| < 100 | ≤ 1000 | 1000 to 3000 | ≤ 1000 | O=C(/C=C/c1ccc2c(c1)C(=O)NC1(CCN(CCc3ccccc3)CC1)O2)NO [Example 71, (E)-3-{1′-(2-Phenyl-ethyl)-3,4-dihydro-4-oxo-spiro[2H-(1,3)-benzoxazine-2,4′-piperidin]-6-yl}-N-hydroxy-acrylamide] |
| 100 to 1000 | 1000 to 3000 | 1000 to 3000 | 1000 to 3000 | O=C(/C=C/c1ccc2c(c1)C(=O)N(Cc1ccccc1)C1(CCN(CCc3ccccc3)CC1)O2)NO [Example 84, (E)-3-{1′-(2-Phenyl-ethyl)-3,4-dihydro-3-benzyl-4-oxo-spiro[2H-(1,3)-benzoxazine-2,4′-piperidin]-6-yl}-N-hydroxy-acrylamide] |
| 100 to 1000 | ≤ 1000 | 1000 to 3000 | 1000 to 3000 | O=C(/C=C/c1ccc2c(c1)C(=O)CC1(CCN(c3ccccc3)CC1)O2)NO [Example 7, (E)-3-{1′-Phenyl-4-oxo-spiro[chromane-2,4′-piperidine]-6-yl}-N-hydroxy-acrylamide] |
| > 1000 | ≥ 3000 | ≥ 3000 | ≥ 3000 | CC(=O)N1CCC2(CC1)CC(=O)c1ccc(/C=C/C(=O)NO)cc1O2 [Example 10, (E)-3-{1′-Acetyl-4-oxo-spiro[chromane-2,4′-piperidine]-7-yl}-N-hydroxy-acrylamide] |
| 100 to 1000 | 1000 to 3000 | 1000 to 3000 | ≤ 1000 | O=C(/C=C/c1ccc2c(c1)C(=O)CC1(CCN(Cc3cccnc3)CC1)O2)NO [Example 41, (E)-3-{1′-(Pyridin-3-ylmethyl)-4-oxo-spiro[chromane-2,4′-piperidine]-6-yl}-N-hydroxy-acrylamide] |
| < 100 | ≤ 1000 | ≤ 1000 | ≤ 1000 | Nc1ccc(CCN2CCC3(CC2)CC(=O)c2cc(/C=C/C(=O)NO)ccc2O3)cc1 [Example 62, (E)-3-{1′-[2-(4-Amino-phenyl)-ethyl]-4-oxo-spiro[chromane-2,4′-piperidine]-6-yl}-N-hydroxy-acrylamide] |
| < 100 | ≥ 3000 | ≥ 3000 | ≥ 3000 | O=C(/C=C/c1ccc2c(c1)C(=O)NC1(CCNCC1)O2)NO [Example 72, (E)-3-{3,4-Dihydro-4-oxo-spiro[2H-(1,3)-benzoxazine-2,4′-piperidin]-6-yl}-N-hydroxy-acrylamide] |
| 100 to 1000 | ≤ 1000 | ≤ 1000 | ≤ 1000 | COc1ccccc1CN1CCC2(CC1)CC(=O)c1cc(/C=C/C(=O)NO)ccc1O2 [Example 31, (E)-3-{1′-(2-Methoxy-benzyl)-4-oxo-spiro[chromane-2,4′-piperidine]-6-yl}-N-hydroxy-acrylamide] |
| 100 to 1000 | 1000 to 3000 | 1000 to 3000 | ≤ 1000 | O=C(/C=C/c1ccc2c(c1)C(=O)C1(CCNCC1)O2)NO [Example 20, (E)-3-{3-oxo-spiro[benzofuran-2(3H), 4′-piperidin]-5-yl}-N-hydroxy-acrylamide] |
| 100 to 1000 | ≤ 1000 | ≤ 1000 | ≤ 1000 | CN1CCC2(CC1)Oc1ccc(/C=C/C(=O)NO)cc1C(=O)N2Cc1ccccc1 [Example 81, (E)-3-{1′-Methyl-3,4-dihydro-3-benzyl-4-oxo-spiro[2H-(1,3)-benzoxazine-2,4′-piperidin]-6-yl}-N-hydroxy-acrylamide] |
| 100 to 1000 | 1000 to 3000 | 1000 to 3000 | ≤ 1000 | CN1C(=O)c2cc(/C=C/C(=O)NO)ccc2OC12CCN(Cc1ccccc1)CC2 [Example 76, (E)-3-{1′-Benzyl-3,4-dihydro-3-methyl-4-oxo-spiro[2H-(1,3)-benzoxazine-2,4′-piperidin]-6-yl}-N-hydroxy-acrylamide] |
| < 100 | 1000 to 3000 | 1000 to 3000 | ≤ 1000 | O=C(/C=C/c1ccc2c(c1)/C(=N/O)CC1(CCN(Cc3ccccc3)CC1)O2)NO [Example 19, (E)-3-{1′-Benzyl-4-hydroxyimino-spiro[chromane-2,4′-piperidine]-6-yl}-N-hydroxy-acrylamide] |
| > 1000 | ≥ 3000 | ≥ 3000 | ≥ 3000 | O=C(/C=C/c1ccc2c(c1)OC1(CCN(Cc3ccccc3)CC1)CC2=O)NO [Example 9, (E)-3-{1′-Benzyl-4-oxo-spiro[chromane-2,4′-piperidine]-7-yl}-N-hydroxy-acrylamide] |
| < 100 | 1000 to 3000 | 1000 to 3000 | ≤ 1000 | CN1CCC2(CC1)NC(=O)c1cc(/C=C/C(=O)NO)ccc1O2 [Example 73, (E)-3-{1′-Methyl-3,4-dihydro-4-oxo-spiro[2H-(1,3)-benzoxazine-2,4′-piperidin]-6-yl}-N-hydroxy-acrylamide] |
| < 100 |  |  |  | O=C(/C=C/c1ccc2c(c1)C(=O)N(Cc1ccccc1)C1(CCNCC1)O2)NO [Example 82, (E)-3-{3,4-Dihydro-3-benzyl-4-oxo-spiro[2H-(1,3)-benzoxazine-2,4′-piperidin]-6-yl}-N-hydroxy-acrylamide] |
| 100 to 1000 |  |  |  | O=C(/C=C/c1ccc2c(c1)C(=O)CC1(CCN(Cc3cnc4ccccc4c3)CC1)O2)NO [Example 66, (E)-3-{1′-(Quinolin-3-ylmethyl)-4-oxo-spiro[chromane-2,4′-piperidine]-6-yl}-N-hydroxy-acrylamide] |
| < 100 |  |  |  | O=C(/C=C/c1ccc2c(c1)C(=O)CC1(CCN(Cc3ccc4ccccc4n3)CC1)O2)NO [Example 65, (E)-3-{1′-(Quinolin-2-ylmethyl)-4-oxo-spiro[chromane-2,4′-piperidine]-6-yl}-N-hydroxy-acrylamide] |
| 100 to 1000 |  |  |  | O=C(/C=C/c1ccc2c(c1)C(=O)CC1(CCN(C3CCCC3)CC1)O2)NO [Example 70, (E)-3-{1′-Cyclopentyl-4-oxo-spiro[chromane-2,4′-piperidine]-6-yl}-N-hydroxy-acrylamide] |
| < 100 |  |  |  | Cc1ccc(CCN2CCC3(CC2)CC(=O)c2cc(/C=C/C(=O)NO)ccc2O3)cc1 [Example 61, (E)-3-{1′-[2-(4-Methyl-phenyl)-ethyl]-4-oxo-spiro[chromane-2,4′-piperidine]-6-yl}-N-hydroxy-acrylamide] |
| 100 to 1000 |  |  |  | O=C(/C=C/c1ccc2c(c1)C(=O)CC1(CCN(Cc3ccccc3-c3ccccc3)CC1)O2)NO [Example 67, (E)-3-{1′-(Biphenyl-2yl-methyl)-4-oxo-spiro[chromane-2,4′-piperidine]-6-yl}-N-hydroxy-acrylamide] |

Source: US9115148B2, “Spirocyclic derivatives as histone deacetylase inhibitors” (DAC S.R.L., priority 2008, dated 2015)
